Values of other authors as cited in PubChem BioAssay AID1259409 (Chemical Carcinogenesis Research Information System (CCRIS), 2018).
Several values for one entry are separate records, joined by “and”; a condition that tells them apart may be missing. Equal entries are not always repeated.

Test system: rodent chemically induced tumor inhibition, incidence and multiplicity
Experiment: CCRIS tumor inhibitor studies

CC(=O)OC12C[C@@H](C)[C@@]3(O)[C@@H](C=C(CO)C[C@]4(O)C(=O)C(C)=C[C@@H]34)C1C2(C)C (some centres undefined)
tumour outcome (control, treated, inhibition, significance) (Carcinogen: 7,12-DIMETHYLBENZ[A]ANTHRACENE, 57-97-6, Dose [Inhibitor]: 0, 256 NMOL 15 D POST INITIATION DOSE FOLLOWED BY 2.56 NMOL 2/WK DURING WK 3-22 APPLIED 15 MIN PRIOR TO EACH PROMOTION D, Route [Inhibitor]: DERMAL, Species: MOUSE, Strain/Sex: CD-1/FEMALE, Target Tissue: Type of Lesion: SKIN: PAPILLOMA, Dose [Carcinogen]: 20 NMOL IN 200 µL ACETONE ONCE): 100%, 95%, 5%, not calculated | tumour outcome (control, treated, inhibition, significance) (Carcinogen: 7,12-DIMETHYLBENZ[A]ANTHRACENE, 57-97-6, Dose [Inhibitor]: 0, 256 NMOL 15 D POST INITIATION DOSE FOLLOWED BY 2.56 UMOL 2/WK DURING WK 3-22 APPLIED 15 MIN PRIOR TO EACH PROMOTION D, Route [Inhibitor]: DERMAL, Species: MOUSE, Strain/Sex: CD-1/FEMALE, Target Tissue: Type of Lesion: SKIN: PAPILLOMA, Dose [Carcinogen]: 20 NMOL IN 200 µL ACETONE ONCE): 94%, 40%, 57%, not calculated | tumour outcome (control, treated, inhibition, significance) (Carcinogen: 7,12-DIMETHYLBENZ[A]ANTHRACENE, 57-97-6, Dose [Inhibitor]: 0, 256 NMOL 15 D POST INITIATION DOSE FOLLOWED BY 25.6 NMOL 2/WK DURING WK 3-22 APPLIED 15 MIN PRIOR TO EACH PROMOTION D, Route [Inhibitor]: DERMAL, Species: MOUSE, Strain/Sex: CD-1/FEMALE, Target Tissue: Type of Lesion: SKIN: PAPILLOMA, Dose [Carcinogen]: 20 NMOL IN 200 µL ACETONE ONCE): 94%, 83%, 12%, not calculated and 100%, 80%, 20%, not calculated | tumour outcome (control, treated, inhibition, significance) (Carcinogen: 7,12-DIMETHYLBENZ[A]ANTHRACENE, 57-97-6, Dose [Inhibitor]: 0, 256 NMOL 15 D POST INITIATION DOSE FOLLOWED BY 25.6 PMOL 2/WK DURING WK 3-22 APPLIED 15 MIN PRIOR TO EACH PROMOTION D, Route [Inhibitor]: DERMAL, Species: MOUSE, Strain/Sex: CD-1/FEMALE, Target Tissue: Type of Lesion: SKIN: PAPILLOMA, Dose [Carcinogen]: 20 NMOL IN 200 µL ACETONE ONCE): 100%, 97%, 3%, not calculated | tumour outcome (control, treated, inhibition, significance) (Carcinogen: 7,12-DIMETHYLBENZ[A]ANTHRACENE, 57-97-6, Dose [Inhibitor]: 0, 256 NMOL 15 D POST INITIATION DOSE FOLLOWED BY 256 NMOL 2/WK DURING WK 3-22 APPLIED 15 MIN PRIOR TO EACH PROMOTION DO, Route [Inhibitor]: DERMAL, Species: MOUSE, Strain/Sex: CD-1/FEMALE, Target Tissue: Type of Lesion: SKIN: PAPILLOMA, Dose [Carcinogen]: 20 NMOL IN 200 µL ACETONE ONCE): 94%, 33%, 65%, not calculated and 100%, 58%, 42%, not calculated | tumour outcome (control, treated, inhibition, significance) (Carcinogen: 7,12-DIMETHYLBENZ[A]ANTHRACENE, 57-97-6, Dose [Inhibitor]: 0, 256 NMOL 15 D POST INITIATION DOSE FOLLOWED BY 256 PMOL 2/WK DURING WK 3-22 APPLIED 15 MIN PRIOR TO EACH PROMOTION DO, Route [Inhibitor]: DERMAL, Species: MOUSE, Strain/Sex: CD-1/FEMALE, Target Tissue: Type of Lesion: SKIN: PAPILLOMA, Dose [Carcinogen]: 20 NMOL IN 200 µL ACETONE ONCE): 100%, 100%, 0%, not significant

O=C(CCCN1CCC(O)(c2ccc(Cl)cc2)CC1)c1ccc(F)cc1
tumour outcome (control, treated, inhibition, significance) (Carcinogen: AZOXYMETHANE, 25843-45-2, Dose [Inhibitor]: 0, 2 MG/KG BW SUSPENDED IN 1 ML/MG OLIVE OIL 1/2 D FOR STUDY DURATION (STUDY DURATION: 30 WK), Route [Inhibitor]: SUBCUTANEOUS, Species: RAT, Strain/Sex: WISTAR/MALE, Target Tissue: Type of Lesion: COLON: TUMOR, Dose [Carcinogen]: 7.4 MG/KG IN 0.9% SALINE 1/WK FOR 10 WK): 9/17 (53%), 3/19 (16%), 70%, p<0.05

COc1ccc(O)cc1C(C)(C)C
tumour outcome (control, treated, inhibition, significance) (Carcinogen: BENZO[A]PYRENE, 50-32-8, Dose [Inhibitor]: 0.03 MMOL/G OF DIET DAILY STARTING 7 D BEFORE AND CONTINUING THROUGH 3 D AFTER CARCINOGEN TREATMENT FOLLOWED BY OBSERVAT, Route [Inhibitor]: ORAL, Species: MOUSE, Strain/Sex: ICR/FEMALE, Target Tissue: Type of Lesion: FORESTOMACH: NEOPLASM, Dose [Carcinogen]: 1 MG IN 0.2 ML CORN OIL 2/WK FOR 4 WK, Promoter: NONE USED): 94%, 60%, 36%, p<0.05 and 90%, 65%, 28%, not significant | tumour outcome (control, treated, inhibition, significance) (Carcinogen: CIPROFIBRATE, 52214-84-3, Dose [Inhibitor]: 0.5% IN DIET FOR 60 WK (STUDY DURATION: 60 WK), Route [Inhibitor]: ORAL, Species: RAT, Strain/Sex: F344/MALE, Target Tissue: Type of Lesion: LIVER: TUMOR, Dose [Carcinogen]: 10 MG/KG/BW IN DIET SIMULTANEOUSLY WITH INHIBITOR FOR 60 WK, Promoter: NONE USED): 22/25 (88%), 12/25 (48%), 45%, p<0.005

NCCS(=O)(=O)O
tumour outcome (control, treated, inhibition, significance) (Carcinogen: AZOXYMETHANE, 25843-45-2, Dose [Inhibitor]: 0, 600 PPM IN DIET BEGINNING 2 WK PRIOR TO CARCINOGEN TREATMENT AND CONTINUING FOR DURATION OF STUDY (STUDY DURATION: 56, Route [Inhibitor]: ORAL, Species: RAT, Strain/Sex: F344/MALE, Target Tissue: Type of Lesion: COLON: INVASIVE ADENOCARCINOMA, Dose [Carcinogen]: 15 MG/KG 1/WK FOR 2 WK, Promoter: NONE USED): 34%, 16%, 53%, not significant | tumour outcome (control, treated, inhibition, significance) (Carcinogen: AZOXYMETHANE, 25843-45-2, Dose [Inhibitor]: 0, 600 PPM IN DIET BEGINNING 2 WK PRIOR TO CARCINOGEN TREATMENT AND CONTINUING FOR DURATION OF STUDY (STUDY DURATION: 56, Route [Inhibitor]: ORAL, Species: RAT, Strain/Sex: F344/MALE, Target Tissue: Type of Lesion: COLON: NONINVASIVE ADENOCARCINOMA, Dose [Carcinogen]: 15 MG/KG 1/WK FOR 2 WK, Promoter: NONE USED): 53%, 61%, -15%, not significant | tumour outcome (control, treated, inhibition, significance) (Carcinogen: AZOXYMETHANE, 25843-45-2, Dose [Inhibitor]: 0, 1200 PPM IN DIET BEGINNING 2 WK PRIOR TO CARCINOGEN TREATMENT AND CONTINUING FOR DURATION OF STUDY (STUDY DURATION: 5, Route [Inhibitor]: ORAL, Species: RAT, Strain/Sex: F344/MALE, Target Tissue: Type of Lesion: COLON: INVASIVE ADENOCARCINOMA, Dose [Carcinogen]: 15 MG/KG 1/WK FOR 2 WK, Promoter: NONE USED): 34%, 17%, 50%, not significant | tumour outcome (control, treated, inhibition, significance) (Carcinogen: AZOXYMETHANE, 25843-45-2, Dose [Inhibitor]: 0, 1200 PPM IN DIET BEGINNING 2 WK PRIOR TO CARCINOGEN TREATMENT AND CONTINUING FOR DURATION OF STUDY (STUDY DURATION: 5, Route [Inhibitor]: ORAL, Species: RAT, Strain/Sex: F344/MALE, Target Tissue: Type of Lesion: COLON: NONINVASIVE ADENOCARCINOMA, Dose [Carcinogen]: 15 MG/KG 1/WK FOR 2 WK, Promoter: NONE USED): 53%, 47%, 11%, not significant | tumour outcome (control, treated, inhibition, significance) (Carcinogen: DIETHYLNITROSAMINE, 55-18-5, Dose [Inhibitor]: 0, 2000 PPM IN DIET FOR 3 WK DURING INITIATION PHASE (STUDY DURATION: 24 WK), Route [Inhibitor]: ORAL, Species: RAT, Strain/Sex: F344/MALE, Target Tissue: Type of Lesion: LIVER: HEPATOCELLULAR ADENOMA, Dose [Carcinogen]: 100 MG/KG BW 1/WK FOR 3 WK, Promoter: PHENOBARBITAL, 50-06-6): 19/20 (95%), 12/19 (63%), 34%, p<0.02 | tumour outcome (control, treated, inhibition, significance) (Carcinogen: DIETHYLNITROSAMINE, 55-18-5, Dose [Inhibitor]: 0, 2000 PPM IN DIET FOR 3 WK DURING INITIATION PHASE (STUDY DURATION: 24 WK), Route [Inhibitor]: ORAL, Species: RAT, Strain/Sex: F344/MALE, Target Tissue: Type of Lesion: LIVER: HEPATOCELLULAR CARCINOMA, Dose [Carcinogen]: 100 MG/KG BW 1/WK FOR 3 WK, Promoter: PHENOBARBITAL, 50-06-6): 14/20 (70%), 13/19 (68%), 3%, not significant | tumour outcome (control, treated, inhibition, significance) (Carcinogen: DIETHYLNITROSAMINE, 55-18-5, Dose [Inhibitor]: 0, 2000 PPM IN DIET FOR 20 WK BEGINNING POST CARCINOGEN TREATMENT (STUDY DURATION: 24 WK), Route [Inhibitor]: ORAL, Species: RAT, Strain/Sex: F344/MALE, Target Tissue: Type of Lesion: LIVER: HEPATOCELLULAR ADENOMA, Dose [Carcinogen]: 100 MG/KG BW 1/WK FOR 3 WK, Promoter: NONE USED): 3/24 (13%), 4/18 (22%), -69%, not significant | tumour outcome (control, treated, inhibition, significance) (Carcinogen: DIETHYLNITROSAMINE, 55-18-5, Dose [Inhibitor]: 0, 2000 PPM IN DIET FOR 20 WK BEGINNING POST CARCINOGEN TREATMENT (STUDY DURATION: 24 WK), Route [Inhibitor]: ORAL, Species: RAT, Strain/Sex: F344/MALE, Target Tissue: Type of Lesion: LIVER: HEPATOCELLULAR ADENOMA, Dose [Carcinogen]: 100 MG/KG BW 1/WK FOR 3 WK, Promoter: PHENOBARBITAL, 50-06-6): 19/20 (95%), 7/21 (33%), 65%, p<0.0001 | tumour outcome (control, treated, inhibition, significance) (Carcinogen: DIETHYLNITROSAMINE, 55-18-5, Dose [Inhibitor]: 0, 2000 PPM IN DIET FOR 20 WK BEGINNING POST CARCINOGEN TREATMENT (STUDY DURATION: 24 WK), Route [Inhibitor]: ORAL, Species: RAT, Strain/Sex: F344/MALE, Target Tissue: Type of Lesion: LIVER: HEPATOCELLULAR CARCINOMA, Dose [Carcinogen]: 100 MG/KG BW 1/WK FOR 3 WK, Promoter: NONE USED): 7/24 (29%), 4/18 (22%), 24%, not significant | tumour outcome (control, treated, inhibition, significance) (Carcinogen: DIETHYLNITROSAMINE, 55-18-5, Dose [Inhibitor]: 0, 2000 PPM IN DIET FOR 20 WK BEGINNING POST CARCINOGEN TREATMENT (STUDY DURATION: 24 WK), Route [Inhibitor]: ORAL, Species: RAT, Strain/Sex: F344/MALE, Target Tissue: Type of Lesion: LIVER: HEPATOCELLULAR CARCINOMA, Dose [Carcinogen]: 100 MG/KG BW 1/WK FOR 3 WK, Promoter: PHENOBARBITAL, 50-06-6): 14/20 (70%), 13/21 (62%), 11%, not significant
